Assay results taken from US5290576A, “Tert-butyloxycarbonyl-L-tyrosyl-peptidoglycan monomer and ^125 I-labeled derivative thereof, their preparation and use” (Pliva Farmaceutska, priority 1990, dated 1994).

Experiments:
[1] = tested on: melanoma B-16; assay: Antitumor (antimetastatic) activity: lung metastases in mice inoculated with melanoma B-16; assay type: in vivo; conditions: for Inhibition % / Metastases %: counted on day 23; for Metastases %: Hanks' control = 100; for Number of metastases, mean (X): C57BL/6 mice, lung metastases counted on day 23
Procedure: The antitumor activity of Boc-Tyr-PGM was investigated in mice, inoculated with melanoma B-16.
Mice (C5 7 BL/6, male, 4 months old), five per group, were given i.v. each 1×10^5 cells of B-16 melanoma on day 0.
One group of mice was chosen as control and was not treated further in any manner. The mice in experimental groups were given i.v. each 1 mg of Boc-Tyr-PGM, according to the following protocol:
3rd group--days 3 and 7 (total 2 mg of Boc-Tyr-PGM)
Three mice groups, which received PGM (PLIVA) i.v. according to the same protocol, were chosen as the positive control.
Macroscopically detectable lung metastases were counted on day 23.

[2] = tested on: antibody-forming cells (plaque-forming cells, PFC) in the spleen of mice immunized with sheep erythrocytes (SRBC); assay: Immunostimulating activity: plaque-forming cells in spleen of mice immunized with sheep erythrocytes (Jerne's technique); assay type: in vivo; conditions: for PFC, % (of Hanks' control): 200 μg i.v. on day +1, PFC on day +4, Hanks' control = 100; for PFC, mean (X) / PFC, range of individual values: 200 μg i.v. on day +1 after SRBC i.p., PFC in spleen on day +4
Procedure: The immunostimulating activity of Boc-Tyr-PGM was tested in mice immunized with sheep erythrocytes (sheep red blood cells, SRBC).
Mice (CBA or AKR), five per group, were immunized i.p. with sheep erythrocytes (1×10^8 SRBC) in Hanks' solution. One day later (on day +1), the control group of mice receiving i.v. Hanks' solution, whereas the test group of mice was given i.v. 200 μg of Boc-Tyr-PGM in Hanks' solution. As positive control, a group of mice was used, to which 200 μg of peptidoglycan monomer (PGM) in Hanks' solution was administered i.v. Four days later (on day +4), the number of antibody-forming cells (plaque-forming cells, PFC) was determined in the spleen by Jerne's technique (Jerne, N. K., Nordin, A. A., and Henry, C. (1963), The agar plaque tecnique for recognizing antibody producing cells, in: "Cell Bound Antibodies", p. 109, Wistar Institute Press, Philadelphia).

[3] = 1 mg i.v. on days 3 and 7 (total 2 mg)

| Substance | Inhibition % ([1]; 1 mg i.v. on day 3) [%] | Metastases % ([1]; 1 mg i.v. on day 3) [%] | Inhibition % ([1]; 1 mg i.v. on day 7) [%] | Metastases % ([1]; 1 mg i.v. on day 7) [%] | Inhibition % [1, 3] [%] | Metastases % [1, 3] [%] | Number of metastases, mean (X) ([1]; 1 mg i.v. on day 3) | Number of metastases, mean (X) ([1]; 1 mg i.v. on day 7) | Number of metastases, mean (X) [1, 3] | inhibition rate of metastases, all treated mice groups ([1]; all treatment protocols (day 3, day 7, days 3 and 7)) | difference in inhibition rate between treatment periods and total doses ([1]; day 3 or 7, 1 mg on day 3 or total 2 mg on days 3 and 7) | antimetastatic effect compared with PGM (PLIVA) positive control ([1]; mouse, in vivo) | PFC, % (of Hanks' control) ([2]; AKR mice) [%] | PFC, mean (X) ([2]; AKR mice) | PFC, range of individual values ([2]; AKR mice) | PFC, % (of Hanks' control) ([2]; CBA mice) [%] | PFC, mean (X) ([2]; CBA mice) | PFC, range of individual values ([2]; CBA mice) | increased number of PFC in comparison with the control group ([2]; both mice strains (CBA, AKR), 200 μg i.v.) | effectiveness compared with the positive control peptidoglycan monomer ([2]; both tests (CBA, AKR)) |
| --- | --- | --- | --- | --- | --- | --- | --- | --- | --- | --- | --- | --- | --- | --- | --- | --- | --- | --- | --- | --- |
| tert-Butyloxycarbonyl-L-tyrosyl-peptidoglycan monomer [Boc-Tyr-PGM] | 38.7 | 61.3 | 41.9 | 58.1 | 43.6 | 56.4 | 7.6 ± 1.9 | 7.2 ± 4.0 | 7.0 ± 2.7 | 37.8%-43.6 | No significant difference in the inhibition rate | comparable to the effect of PGM (PLIVA) | 150 | 55,974 | 31,730-68,670 | 157 | 295,866 | 257,600-304,266 | approximately 50% | comparable with the effect of the positive control |
| GlcNAc-β-(1→4)MurNAc-L-Ala-D-iGln-[(L)-meso-A2 pm-(D)-amide-(L)-D-Ala-D-Ala] [PGM, reference compound] | 50.0 | 50.0 | 66.5 | 43.5 | 67.3 | 42.7 | 6.2 ± 4.4 | 5.4 ± 1.7 | 5.3 ± 1.7 | – | – | – | 130 | 48,668 | 27,200-61,070 | 166 | 313,413 | 198,800-449,866 | – | – |
